Laboratory results taken from paper PMC7224301, “Methodology for the identification of small molecule inhibitors of the Fanconi Anaemia ubiquitin E3 ligase complex” (Scientific Reports, 2020).

Experiments:
[1] = tested on: FANCD2 foci in SUM149 parental cells; assay: Nuclear FANCD2 foci formation (immunofluorescence), SUM149 parental; format: cell-based, human; conditions: for FANCD2 foci: 2 days exposure, DMSO = 3.80; for effect on FANCD2 foci formation: SUM149 parental cells (BRCA1-deficient), 1 µM
Procedure: FANCD2 foci formation is often used as an indicator of FA core complex functionality[40],[43]. Therefore, we selected 11 compounds to test at 1 µM in 384-well format for their ability to reduce FANCD2 foci formation in SUM149 parental BRCA1-deficient cells. […] An inhibitor of the FA pathway could exploit this dependency of FANCD2 activity to synergise with PARP inhibitors.
Nuclear FANCD2 foci were measured in high throughput by quantitating DAPI stained cell nuclei of either SUM149 or SUM149 B1.S* cell lines using automated confocal imaging (CX7 LZR, ThermoFisher Scientific). […] FANCD2 foci were detected with immunofluorescence using rabbit anti-human FANCD2 (abcam, ab108928).

[2] = tested on: T1, FA core complex-mediated FANCD2 mono-ubiquitination; assay: FANCD2 mono-ubiquitination proximity assay (AlphaScreen), inhibitor format; format: biochemical, human proteins; Xenopus laevis FANCD2 and FANCI; conditions: at 0.3 µM
T1 construct: made in house; host or cells: High-Five insect cells (FANC-B-L-100, FANCD2-FANCI); E. coli BL21 (DE3) (UBE2T); UBE1 and ubiquitin from Boston Biochem
From the text: The inhibitor assay includes recombinant ubiquitin, ubiquitin activating enzyme, FANCT, FANC-B-L-100, FANC-C-E-F, FANCI, FANCD2 and dsDNA[41] (Fig. 2a). For the activator assay, the activity stimulating adaptor complex FANC-C-E-F is omitted to give a baseline FANCD2-ubiquitination signal which enables a greater dynamic range to detect activation of the E3 ligase sub complex FANCB-L-100 (Fig. 2b,c). […] The gel-based FANCD2 mono-ubiquitination assay that we published previously[26] was modified to give a chemi-luminescent readout using a proximity assay (Materials and methods) (Fig. 1b). The purified proteins in the mono-ubiquitination assays used for the high-throughput screen are biotinylated-ubiquitin (b-ubiquitin), His-UBE1, FANCT, Flag-FANCB, FANCL, FAAP100, MBP-FANCC, FANCE, FANCF, GST-XlFANCD2 and Flag-XlFANCI. The assay was calibrated for maximal signal to background and for an optimal dynamic range within which small molecule modulators could be detected in a 384-well plate format. […]
For high-throughput screening, FANCD2 mono-ubiquitination was measured with a proximity assay (AlphaScreen, Perkin Elmer). […] The 520–620 nm signal provides a read out of FANCD2 mono-ubiquitination. […] All protein concentrations in the assay were determined by titration of each component for optimal activity (Fig. 2). […]

SUM149.B1.S* cells = assay: Synthetic lethal cell assay (SRB cell viability), BRCA1-proficient control cells; format: cell-based, human; conditions: SUM149.B1.S* (BRCA1 reversion), 10 µM, 72 h
From the text: (§1) Therefore, we tested our preliminary inhibitors for the ability to kill BRCA1-deficient cells preferentially over isogenic BRCA1-proficient controls. To achieve this we exploited the triple negative breast cancer cell line SUM149[48] with a homozygous loss of function mutation in BRCA1 (c.2288delT, p.N723fsX13) and the daughter cell line, SUM149.B1.S* with one allele containing a secondary restoration of function mutation (an 80-bp BRCA1 deletion, c.[2288delT;2293del80])[49]. Twenty-five compounds were tested at 10 µM for preferential cytotoxicity in the BRCA1-deficient SUM149 (Fig. 5).
(§2) SUM149 parental cell line and SUM149 B1.S* cell lines[49] were seeded in a 96-well plate with 3000 cells per well. After 24 h, media was removed, and the cells were treated with 10 µM of each compound in triplicate in antibiotic free media and left for 72 h. Cell were fixed with 1% trichloroacetic acid and stained with sulphorhodamine B (SRB). Absorbance of wells were read at 550 nm.

SUM149 cells = assay: Synthetic lethal cell assay (SRB cell viability), BRCA1-deficient cells; format: cell-based, human; conditions: 10 µM, 72 h
From the text: as §1, §2

T1 sequence (Q9NW38 whole entry): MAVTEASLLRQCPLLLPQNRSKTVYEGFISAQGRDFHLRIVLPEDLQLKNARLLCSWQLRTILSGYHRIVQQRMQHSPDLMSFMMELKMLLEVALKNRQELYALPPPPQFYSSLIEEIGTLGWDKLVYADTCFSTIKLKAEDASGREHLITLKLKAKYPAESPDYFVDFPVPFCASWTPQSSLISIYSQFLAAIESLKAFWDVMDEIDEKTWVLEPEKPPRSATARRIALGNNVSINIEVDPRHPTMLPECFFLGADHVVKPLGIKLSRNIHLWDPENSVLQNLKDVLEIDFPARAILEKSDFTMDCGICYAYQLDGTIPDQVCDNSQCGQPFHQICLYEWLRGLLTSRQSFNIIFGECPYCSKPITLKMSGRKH
T1 sequence (Q8NB91 whole entry, further chain): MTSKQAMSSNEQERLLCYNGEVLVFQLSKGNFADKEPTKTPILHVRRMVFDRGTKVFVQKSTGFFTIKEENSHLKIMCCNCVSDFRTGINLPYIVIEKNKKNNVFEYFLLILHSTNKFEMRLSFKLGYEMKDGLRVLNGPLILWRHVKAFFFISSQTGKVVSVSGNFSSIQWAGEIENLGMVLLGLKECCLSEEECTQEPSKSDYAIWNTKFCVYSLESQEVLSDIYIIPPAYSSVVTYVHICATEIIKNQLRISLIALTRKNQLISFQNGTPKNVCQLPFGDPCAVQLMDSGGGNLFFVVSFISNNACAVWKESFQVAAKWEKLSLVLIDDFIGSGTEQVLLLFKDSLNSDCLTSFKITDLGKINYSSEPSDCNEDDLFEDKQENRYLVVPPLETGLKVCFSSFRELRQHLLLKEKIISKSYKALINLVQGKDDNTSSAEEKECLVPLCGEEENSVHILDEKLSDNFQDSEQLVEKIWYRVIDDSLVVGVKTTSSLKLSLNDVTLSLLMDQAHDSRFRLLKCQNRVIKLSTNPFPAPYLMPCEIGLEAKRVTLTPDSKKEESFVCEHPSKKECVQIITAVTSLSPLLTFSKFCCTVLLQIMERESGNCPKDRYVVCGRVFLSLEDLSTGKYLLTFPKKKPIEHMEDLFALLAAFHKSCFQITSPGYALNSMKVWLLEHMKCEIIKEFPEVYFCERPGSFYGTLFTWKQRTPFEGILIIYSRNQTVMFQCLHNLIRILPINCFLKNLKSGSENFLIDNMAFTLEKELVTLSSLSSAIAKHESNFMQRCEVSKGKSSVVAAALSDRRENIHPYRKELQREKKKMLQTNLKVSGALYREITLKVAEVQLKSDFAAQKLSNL
T1 sequence (Q0VG06 whole entry, further chain): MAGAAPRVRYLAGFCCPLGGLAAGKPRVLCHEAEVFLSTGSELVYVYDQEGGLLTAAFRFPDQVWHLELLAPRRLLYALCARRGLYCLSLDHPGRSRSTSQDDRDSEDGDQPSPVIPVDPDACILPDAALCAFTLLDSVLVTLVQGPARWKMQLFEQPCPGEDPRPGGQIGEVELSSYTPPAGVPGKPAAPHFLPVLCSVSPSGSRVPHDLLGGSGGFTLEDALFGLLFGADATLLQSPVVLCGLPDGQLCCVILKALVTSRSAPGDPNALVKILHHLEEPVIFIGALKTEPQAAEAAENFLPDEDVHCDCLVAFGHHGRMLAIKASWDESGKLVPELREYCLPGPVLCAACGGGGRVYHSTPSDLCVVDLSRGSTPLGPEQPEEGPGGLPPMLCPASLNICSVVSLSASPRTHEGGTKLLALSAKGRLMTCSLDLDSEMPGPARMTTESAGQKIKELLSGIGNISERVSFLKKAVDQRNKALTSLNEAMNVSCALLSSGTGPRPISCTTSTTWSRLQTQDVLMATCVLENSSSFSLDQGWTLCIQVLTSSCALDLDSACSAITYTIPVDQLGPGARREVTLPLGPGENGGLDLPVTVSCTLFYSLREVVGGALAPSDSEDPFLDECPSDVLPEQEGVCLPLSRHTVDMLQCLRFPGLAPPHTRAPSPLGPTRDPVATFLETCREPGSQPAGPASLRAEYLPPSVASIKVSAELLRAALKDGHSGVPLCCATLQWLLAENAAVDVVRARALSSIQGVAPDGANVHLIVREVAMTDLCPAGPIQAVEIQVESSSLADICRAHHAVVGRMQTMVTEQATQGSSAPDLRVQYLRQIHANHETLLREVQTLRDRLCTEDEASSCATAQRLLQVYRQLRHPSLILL
T1 sequence (Q00597 whole entry, further chain): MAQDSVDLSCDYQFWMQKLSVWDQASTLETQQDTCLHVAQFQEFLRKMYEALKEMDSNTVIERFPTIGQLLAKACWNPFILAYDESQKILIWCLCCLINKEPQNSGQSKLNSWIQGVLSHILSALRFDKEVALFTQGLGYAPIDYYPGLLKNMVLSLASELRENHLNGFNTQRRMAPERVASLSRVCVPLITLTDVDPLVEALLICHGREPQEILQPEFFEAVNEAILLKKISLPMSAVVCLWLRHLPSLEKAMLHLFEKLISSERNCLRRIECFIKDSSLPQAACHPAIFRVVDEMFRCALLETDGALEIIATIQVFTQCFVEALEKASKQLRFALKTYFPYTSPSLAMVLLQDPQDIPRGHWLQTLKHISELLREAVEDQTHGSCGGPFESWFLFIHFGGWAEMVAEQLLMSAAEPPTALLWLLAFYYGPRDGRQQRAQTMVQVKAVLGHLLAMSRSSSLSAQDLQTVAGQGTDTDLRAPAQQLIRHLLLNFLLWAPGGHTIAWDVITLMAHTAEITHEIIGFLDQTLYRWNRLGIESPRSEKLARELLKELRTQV
T1 sequence (Q9HB96 whole entry, further chain): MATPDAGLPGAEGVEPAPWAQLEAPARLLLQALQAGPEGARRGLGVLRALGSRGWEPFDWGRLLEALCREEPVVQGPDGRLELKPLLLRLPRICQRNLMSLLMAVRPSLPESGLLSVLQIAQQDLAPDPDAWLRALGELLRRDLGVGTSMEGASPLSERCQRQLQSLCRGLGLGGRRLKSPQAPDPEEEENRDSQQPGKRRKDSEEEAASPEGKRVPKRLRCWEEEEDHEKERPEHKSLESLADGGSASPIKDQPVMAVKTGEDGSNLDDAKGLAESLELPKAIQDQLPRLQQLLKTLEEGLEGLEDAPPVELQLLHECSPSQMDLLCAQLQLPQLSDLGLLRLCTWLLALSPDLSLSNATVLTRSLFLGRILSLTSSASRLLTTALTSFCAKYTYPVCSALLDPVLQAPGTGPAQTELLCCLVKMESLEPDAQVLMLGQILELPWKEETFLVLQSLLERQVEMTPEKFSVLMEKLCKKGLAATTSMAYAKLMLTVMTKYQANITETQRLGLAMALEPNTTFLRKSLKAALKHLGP
T1 sequence (Q9NPI8 whole entry, further chain): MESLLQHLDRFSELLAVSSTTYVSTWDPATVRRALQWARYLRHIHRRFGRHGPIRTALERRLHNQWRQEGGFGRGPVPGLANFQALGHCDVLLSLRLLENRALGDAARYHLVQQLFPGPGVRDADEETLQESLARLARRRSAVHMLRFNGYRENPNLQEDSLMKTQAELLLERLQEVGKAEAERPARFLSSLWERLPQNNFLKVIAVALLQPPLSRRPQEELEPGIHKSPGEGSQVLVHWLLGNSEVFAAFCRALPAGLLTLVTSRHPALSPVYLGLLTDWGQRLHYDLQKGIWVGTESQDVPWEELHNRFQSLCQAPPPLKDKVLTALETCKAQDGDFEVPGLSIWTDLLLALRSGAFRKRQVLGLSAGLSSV

| Compound | FANCD2 foci ([1]; SUM149 parental cells) | effect on FANCD2 foci formation [1] | other results |
| --- | --- | --- | --- |
| CO[C@@]12[C@H](COC(N)=O)C3=C(C(=O)C(C)=C(N)C3=O)N1C[C@@H]1N[C@@H]12 [MMC, mitomycin C] | 5.45 | – | – |
| NS(=O)(=O)OC[C@H]1C[C@@H](Nc2ccnc3cc(-c4cccc(SC(F)(F)F)c4)nn23)[C@H](O)[C@@H]1O [TAK243] | 0.28 | – | toxicity in the foci assay ([1]; SUM149 parental cells): highly toxic; inhibition of the FANCD2 mono-ubiquitination reaction [2]: > 50% |
| NC(=O)c1cccc2cn(-c3ccc([C@@H]4CCCNC4)cc3)nc12 [niraparib] | – | increased FANCD2 foci formation | – |
| O=C(c1cc(Cc2n[nH]c(=O)c3ccccc23)ccc1F)N1CCN(C(=O)C2CC2)CC1 [olaparib] | – | increased FANCD2 foci formation | survival (SUM149.B1.S* cells): 78.1%; survival (SUM149 cells): 33.3% |
| CNCc1ccc(-c2[nH]c3cc(F)cc4c3c2CCNC4=O)cc1 [rucaparib] | – | increased FANCD2 foci formation | – |
| C[C@]1(c2nc3c(C(N)=O)cccc3[nH]2)CCCN1 [veliparib] | – | increased FANCD2 foci formation | – |
